Test results as given in publication PMC12408501, “A novel fluorescent probe, triphenylamine rhodamine-3-acetic acid (mRA) for the detection of Amyloid-β aggregates in Alzheimer's disease” (Frontiers in Neuroscience, 2025).

Target: T1, Amyloid-β (Aβ1-42) aggregates (Homo sapiens, UniProt P05067)
T1 construct: gene APP; Aβ1-42 (aggregates)
Test: fluorescence enhancement titration (supported by far-UV CD and van't Hoff analysis)
Assay type: binding

T1 sequence (P05067 672-713): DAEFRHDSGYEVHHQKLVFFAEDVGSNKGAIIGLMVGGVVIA

Kd: 341 ± 17 nM
Compound: O=C(O)CN1C(=O)/C(=C/c2ccc(N(c3ccccc3)c3ccccc3)cc2)SC1=S [mRA, triphenylamine rhodamine-3-acetic acid]
